One test concerns the target HDAC8 (Homo sapiens (Human), UniProt Q9BY41). Put plainly: Fluor de Lys HDAC8 inhibition. Type of test: biochemical. As to conditions: for IC50: read-out: HDAC 8; for HDAC8: Nuclear Extract Isoform Selectivity: ratio of IC50 HDAC8 to nuclear extract.
Test [1] has as its system HeLa nuclear extract HDAC1/2. The test can be described thus: Fluor de Lys HDAC inhibition, HeLa nuclear extract. The format is biochemical, human. The text has this:
(§1) Fluor de Lys™ is a fluorescence based HDAC activity assay comprising a combination of fluorogenic Histone deAcetylase Lysyl substrate and a developer. The kit is a highly sensitive and convenient alternative to radiolabeled, acetylated histones or peptide/HPLC methods for the assay of histone deacetylases. This assay is based on the ability of HeLa nuclear extract, which is enriched in HDAC activity, to mediate the deacetylation of the acetylated lysine side chain of the Fluor de Lys substrate. The assay procedure requires two steps. First, incubation of the HeLa nuclear extract with the Fluor de Lys substrate results in substrate deacetylation and thus sensitizes it to the second step. In the second step, treatment of the deacetylated substrate with the Fluor de Lys developer produces a fluorophore. The substrate-developer reaction, under normal circumstances goes to completion in less than 1 min at 25° C. The kit used was the Fluorimetric Assay/Drug Discovery Kit—AK-500 Manual Fluorescent Assay System available from BIOMOL® International, Plymouth Meeting, Pa.
Each IC50 value was obtained by averaging three independent experiments.

For the next test, the system named is NCI-H69. The test can be described thus: Cell viability, trypan blue exclusion. As to conditions: Homo sapiens. Type of test: cell-based. The text has this: (§2) Most importantly, the compounds we less toxic to untransformed cell-lines (lung fibroblast and HMEC).
(§3) Most importantly, these compounds are less toxic to untransformed cell-lines (lung fibroblast and HMEC) that we have studied to date.

Another test concerns HMEC. Put plainly: Cell viability, trypan blue exclusion. Conditions: Homo sapiens; untransformed cells. The format is cell-based.
Description: as §2, §3

Another test deals with DU 145 cells. Put plainly: Cell viability, trypan blue exclusion. Conditions: Homo sapiens. Type of test: cell-based.
Description: as §2, §3

In the next test the test system is lung fibroblasts. Put plainly: Cell viability, trypan blue exclusion. Type of test: cell-based. Conditions: Fibroblast; untransformed cells.
Description: as §2, §3

For a further test, the system named is SKMES 1. Put plainly: Cell viability, trypan blue exclusion. The format is cell-based. Conditions: Homo sapiens, SK-MES-1.
Description: as §2, §3

A further test concerns the target HDAC6 (Homo sapiens (Human), UniProt Q9UBN7). The test can be described thus: Fluor de Lys HDAC6 inhibition. The format is biochemical. Conditions: for IC50: Table 5, read-out: HDAC 6; for HDAC6: Nuclear Extract Isoform Selectivity: ratio of IC50 HDAC6 to nuclear extract.
Description: as §1
The ketolides 56 were also evaluated for their HDAC inhibitory activity against HDACs 1 and 2 from HeLa cell nuclear extract, HDAC6, and HDAC8 using the Fluor de Lys assay.

In a further test the test system is lung (A549). The test can be described thus: Cell viability, MTS colorimetric assay. Type of test: cell-based. How it is done:
(§4) The effect of compounds 56a-e on cancer cell lines: prostate (DU-145), lung (A549), and breast cancer (MCF-7) and a non-transformed cell, human lung fibroblast cell (Hs1.Lu) were also evaluated.
(In general: Tetrazolium dyes change colour on reduction, which living cells bring about.)

The next test concerns prostate (DU-145). The test can be described thus: Cell viability, MTS colorimetric assay. The format is cell-based. How it is done: as §4
The subject of a further test is breast cancer (MCF-7). Put plainly: Cell viability, MTS colorimetric assay. The format is cell-based. How it is done:
as §4

The test system of test [2] is Plasmodium falciparum (W2 clone), chloroquine-resistant. Put plainly: Plasmodium growth inhibition, parasite lactate dehydrogenase assay (Malstat). The format is cell-based. As to conditions: for Plasmodium falciparum (W2 clone) IC50: chloroquine-resistant. How it is done: (§5) The compounds described herein were also evaluated for parasitic activity against Plasmodium falciparum and Leismania donovani. P. falciparum and L. donovani are the causative parasites of malaria and leishmaniasis, two human diseases which constitute a serious threat to public health in tropical and sub-tropical countries. Antimalarial activity was evaluated in vitro using chloroquine-sensitive (D6, Sierra Leone) and chloroquine-resistant (W2, Indochina) strains of P. falciparum. Antileishmanial activity was evaluated in vitro against the promastigote stage of L. donovani.
(§6) Plasmodium growth inhibition was determined by a parasite lactate dehydrogenase assay using Malstat reagent. Inhibition of viability of the promastigote stage of L. donovani was determined using standard Alamar blue assay, modified to a fluorometric assay.
(§7) Macrocyclic histone deacetylase inhibitors were evaluated for parasitic activity against Plasmodium falciparum and Leismania donovani. P. falciparum and L. donovani are the causative parasites of malaria and leishmaniasis, two human diseases which constitute a serious threat to public health in tropical and sub-tropical countries. Antimalarial activity was evaluated in vitro using chloroquine-sensitive (D6, Sierra Leone) and chloroquine-resistant (W2, Indochina) strains of P. falciparum. Antileishmanial activity was evaluated in vitro against the promastigote stage of L. donovani.
as §6

Test [3] has as its system Plasmodium falciparum (D6 clone), chloroquine-sensitive. Described as above. Type of test: cell-based. Conditions: for Plasmodium falciparum (D6 clone) IC50: chloroquine-sensitive; for S.I. D6: selective toxicity index, Vero versus D6. How it is done: as §5, §6, §7, §6
Setting [4] is: average of three independent experiments, Table 4.
[5] abbreviates: HeLa nuclear extract, average of three independent experiments, Table 4, read-out: HDAC ½.
[6] abbreviates: HDACs 1 and 2 from HeLa cell nuclear extract, Table 5, read-out: Nuclear Extract.

Like-named read-outs stand apart in the source and are kept apart here.

HDAC6, sequence (Q9UBN7 whole entry, canonical isoform): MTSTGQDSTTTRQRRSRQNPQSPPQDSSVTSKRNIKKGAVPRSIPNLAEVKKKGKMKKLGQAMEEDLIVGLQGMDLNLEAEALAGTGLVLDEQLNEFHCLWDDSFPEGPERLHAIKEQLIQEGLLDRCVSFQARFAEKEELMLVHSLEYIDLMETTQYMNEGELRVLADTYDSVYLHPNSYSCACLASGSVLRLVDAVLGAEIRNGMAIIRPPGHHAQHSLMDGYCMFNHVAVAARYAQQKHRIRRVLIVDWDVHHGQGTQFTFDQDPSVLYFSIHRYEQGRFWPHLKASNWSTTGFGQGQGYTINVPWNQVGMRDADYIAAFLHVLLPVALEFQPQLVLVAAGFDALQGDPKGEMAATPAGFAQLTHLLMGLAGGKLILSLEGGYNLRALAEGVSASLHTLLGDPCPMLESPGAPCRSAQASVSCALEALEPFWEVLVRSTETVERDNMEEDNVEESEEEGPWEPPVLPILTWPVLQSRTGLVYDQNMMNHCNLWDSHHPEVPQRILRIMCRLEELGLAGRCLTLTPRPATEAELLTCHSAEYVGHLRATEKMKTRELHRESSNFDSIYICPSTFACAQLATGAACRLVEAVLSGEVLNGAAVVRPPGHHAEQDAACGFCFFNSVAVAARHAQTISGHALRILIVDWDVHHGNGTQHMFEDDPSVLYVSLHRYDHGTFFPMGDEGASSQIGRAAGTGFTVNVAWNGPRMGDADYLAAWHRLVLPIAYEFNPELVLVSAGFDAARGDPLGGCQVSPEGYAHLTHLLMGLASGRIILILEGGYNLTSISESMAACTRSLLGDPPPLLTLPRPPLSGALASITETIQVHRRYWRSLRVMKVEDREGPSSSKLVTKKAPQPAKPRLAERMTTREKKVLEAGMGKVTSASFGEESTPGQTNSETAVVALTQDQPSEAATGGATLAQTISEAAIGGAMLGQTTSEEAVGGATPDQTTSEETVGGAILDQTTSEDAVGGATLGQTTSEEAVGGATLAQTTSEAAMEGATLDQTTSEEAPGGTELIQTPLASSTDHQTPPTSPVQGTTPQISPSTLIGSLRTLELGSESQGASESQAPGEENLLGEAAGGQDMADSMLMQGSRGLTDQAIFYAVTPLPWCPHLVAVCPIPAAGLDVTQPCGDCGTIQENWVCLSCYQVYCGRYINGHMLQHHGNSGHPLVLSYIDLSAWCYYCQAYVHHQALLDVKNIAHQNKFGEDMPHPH
HDAC8, sequence (Q9BY41 whole entry, canonical isoform): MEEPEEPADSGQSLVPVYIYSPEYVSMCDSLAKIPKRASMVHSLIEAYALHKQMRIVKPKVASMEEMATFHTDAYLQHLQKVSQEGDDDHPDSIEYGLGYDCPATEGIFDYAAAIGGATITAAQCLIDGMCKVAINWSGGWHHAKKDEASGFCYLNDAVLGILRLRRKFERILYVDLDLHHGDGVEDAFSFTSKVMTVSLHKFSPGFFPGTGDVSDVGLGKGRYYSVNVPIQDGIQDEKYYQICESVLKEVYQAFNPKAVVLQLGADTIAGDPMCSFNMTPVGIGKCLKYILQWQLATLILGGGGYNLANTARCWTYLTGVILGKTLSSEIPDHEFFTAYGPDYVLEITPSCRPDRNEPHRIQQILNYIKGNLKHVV

In general, EC50 refers to the concentration that produces a half-maximal response. A lower EC50 goes with a more potent agent. On to `CC[C@H]1OC(=O)[C@H](C)[C@@H](O[C@H]2C[C@@](C)(OC)[C@@H](O)[C@H](C)O2)[C@H](C)[C@@H](O[C@@H]2O[C@H](C)C[C@H](N(C)Cc3ccc(-c4cn(CCCCCCCC(=O)NO)nn4)cc3)[C@H]2O)[C@](C)(OC)C[C@@H](C)C(=O)[C@H](C)[C@@H](O)[C@]1(C)O` [Compound 27, Clarithromycin-N-Phenyltriazolyloctahydroxamic acid], for which the IC50 at HDAC8 (setting [4]) was found to be 5880 nM; in [1] (setting [5]), 55.6 nM. Besides, the EC50 was 5670 nM with NCI-H69; over 10000 nM in the test with HMEC; 6970 nM in the test with DU 145 cells; over 10000 nM with lung fibroblasts; 4890 nM with SKMES 1.
Take `CC[C@H]1OC(=O)[C@H](C)[C@@H](O)[C@H](C)[C@@H](O[C@@H]2O[C@H](C)C[C@H](N(C)Cc3ccc(-c4cn(CCCCCCC(=O)NO)nn4)cc3)[C@H]2O)[C@](C)(OC)C[C@@H](C)C(=O)[C@H](C)[C@@H](O)[C@]1(C)O` [Compound 26, Descladinose-Clarithromycin-N-phenyltriazolylheptahydroxamic acid]: the results for the IC50 (on HDAC8 (setting [4]); in test [1] (setting [5])) were 1390 nM and 1.87 nM, respectively. Moreover, the EC50 was 1490 nM in the test on NCI-H69; over 10000 nM in the test on HMEC; 1050 nM with DU 145 cells; over 10000 nM with lung fibroblasts; 1280 nM with SKMES 1.
As to `CC[C@H]1OC(=O)[C@H](C)[C@@H](O[C@H]2C[C@@](C)(OC)[C@@H](O)[C@H](C)O2)[C@H](C)[C@@H](O[C@@H]2O[C@H](C)C[C@H](N(C)Cc3ccc(-c4cn(CCCCCCCCC(=O)NO)nn4)cc3)[C@H]2O)[C@](C)(OC)C[C@@H](C)C(=O)[C@H](C)[C@@H](O)[C@]1(C)O` [Compound 29, Clarithromycin-N-Phenyltriazolylnonahydroxamic acid], the IC50 on HDAC8 (setting [4]) was 10600 nM; in [1] (setting [5]), 170 nM. The concentration giving a half-maximal response (EC50) in the test on NCI-H69 was 7290 nM; with HMEC it was over 10000 nM; in the test with DU 145 cells it was 8140 nM; with lung fibroblasts, over 10000 nM; in the test with SKMES 1, 7120 nM.
Turning to `CCC1OC(=O)C(C)C(=O)C(C)C(OC2OC(C)CC(N(C)Cc3ccc(-c4cn(CCCCCC(=O)NO)nn4)cc3)C2O)C(C)(OC)CC(C)C2=NCCN3C(=O)OC1(C)C3C2C` (stereo not shown) [Compound 56a, Tricyclic Ketolide-N-benzyltriazolylhexahydroxamic acid], the IC50 on HDAC6 turned out to be 1180 nM; on HDAC8 (Table 5), 796 nM; in test [1] (setting [6]) it was 7.77 nM. Further, the “HDAC6: Nuclear Extract Isoform Selectivity” value at HDAC6 is reported as 151.9. Moreover, the “HDAC8: Nuclear Extract Isoform Selectivity” value on HDAC8 is listed as 102.5. Further, the EC50 in the test on lung (A549) is 1170 nM; in the test with prostate (DU-145), 1640 nM; in the test on breast cancer (MCF-7), 1260 nM. Besides, in test [2], the “Plasmodium falciparum (W2 clone) IC50” value turned out to be 1.80 µg/mL. Moreover, the “Plasmodium falciparum (D6 clone) IC50” value in test [3] came to 0.96 µg/mL. In addition, the “S.I. D6” value in test [3] was >5.0 (no value).
Take `CC[C@H]1OC(=O)[C@H](C)[C@@H](O[C@H]2C[C@@](C)(OC)[C@@H](O)[C@H](C)O2)[C@H](C)[C@@H](O[C@@H]2O[C@H](C)C[C@H](N(C)Cc3ccc(-c4cn(CCCCCC(=O)NO)nn4)cc3)[C@H]2O)[C@](C)(OC)C[C@@H](C)C(=O)[C@H](C)[C@@H](O)[C@]1(C)O` [Compound 23, Clarithromycin-N-phenyltriazolylhexahydroxamic acid]: the IC50 was determined as 3990 nM at HDAC8 (setting [4]) and 37 nM in test [1] (setting [5]). Further, the EC50 was 2670 nM in the test with NCI-H69; over 10000 nM with HMEC; 2980 nM in the test with DU 145 cells; over 10000 nM with lung fibroblasts; 2150 nM in the test on SKMES 1.
Take `CC[C@H]1OC(=O)[C@H](C)[C@@H](O)[C@H](C)[C@@H](O[C@@H]2O[C@H](C)C[C@H](N(C)Cc3ccc(-c4cn(CCCCCCCC(=O)NO)nn4)cc3)[C@H]2O)[C@](C)(OC)C[C@@H](C)C(=O)[C@H](C)[C@@H](O)[C@]1(C)O` [Compound 28, Descladinose-Clarithromycin-N-Phenyltriazolyloctahydroxamic acid]: the IC50 amounted to 4420 nM at HDAC8 (setting [4]) and 123 nM in [1] (setting [5]). In addition, the EC50 in the test with NCI-H69 is 5090 nM; in the test on HMEC it was over 10000 nM; in the test on DU 145 cells, 5780 nM; in the test on lung fibroblasts, over 10000 nM; in the test with SKMES 1 it was 4450 nM.
Take `CCC1OC(=O)C(C)C(=O)C(C)C(OC2OC(C)CC(N(C)Cc3ccc(-c4cn(CCCCCCC(=O)NO)nn4)cc3)C2O)C(C)(OC)CC(C)C2=NCCN3C(=O)OC1(C)C3C2C` (stereo not shown) [Compound 56b, Tricyclic Ketolide-N-benzyltriazolylheptahydroxamic acid]: the IC50 on HDAC6 was 729 nM; on HDAC8 (Table 5), 545 nM; in [1] (setting [6]) it was 1.03 nM. The “HDAC6: Nuclear Extract Isoform Selectivity” value at HDAC6 is recorded as 707.5. Besides, the “HDAC8: Nuclear Extract Isoform Selectivity” value on HDAC8 was found to be 528.7. Further, the EC50 with lung (A549) is 660 nM; in the test with prostate (DU-145) it was 820 nM; in the test on breast cancer (MCF-7) it was 750 nM. In addition, the “Nuclear Extract (nM)” value in test [1] (HDACs 1 and 2 from HeLa cell nuclear extract, Table 5) is reported as “single digit nanomolar”. In [2], the “Plasmodium falciparum (W2 clone) IC50” value worked out at 0.12 µg/mL. Moreover, in [2] (selective toxicity index, Vero versus W2, value in brackets), the “S.I. (W2)” value is on record as over 39.7. For the same molecule, in test [3], the “Plasmodium falciparum (D6 clone) IC50” value is 0.14 µg/mL. In addition, the “S.I. D6” value in test [3] is given as over 34.
On to `CC[C@H]1OC(=O)[C@H](C)[C@@H](O[C@H]2C[C@@](C)(OC)[C@@H](O)[C@H](C)O2)[C@H](C)[C@@H](O[C@@H]2O[C@H](C)C[C@H](N(C)Cc3ccc(-c4cn(CCCCCCC(=O)NO)nn4)cc3)[C@H]2O)[C@](C)(OC)C[C@@H](C)C(=O)[C@H](C)[C@@H](O)[C@]1(C)O` [Compound 25, Clarithromycin-N-phenyltriazolylheptahydroxamic acid], for which the IC50 was found to be 1890 nM at HDAC8 (setting [4]) and 4.09 nM in test [1] (setting [5]). Also, the EC50 in the test with NCI-H69 is 1450 nM; with HMEC, over 10000 nM; with DU 145 cells it was 1120 nM; with lung fibroblasts, over 10000 nM; in the test on SKMES 1, 1330 nM.
Take `CC[C@H]1OC(=O)[C@H](C)[C@@H](O)[C@H](C)[C@@H](O[C@@H]2O[C@H](C)C[C@H](N(C)Cc3ccc(-c4cn(CCCCCC(=O)NO)nn4)cc3)[C@H]2O)[C@](C)(OC)C[C@@H](C)C(=O)[C@H](C)[C@@H](O)[C@]1(C)O` [Compound 24, Descladinose-Clarithromycin-N-phenyltriazolylhexahydroxamic acid]: the IC50 on HDAC8 (setting [4]) worked out at 4750 nM; in test [1] (setting [5]), 44.3 nM. In addition, the EC50 in the test with NCI-H69 was 1920 nM; in the test on HMEC, over 10000 nM; in the test with DU 145 cells it was 3290 nM; in the test with lung fibroblasts, over 10000 nM; with SKMES 1 it was 1950 nM.

The values above are taken from US8871728B2, “Non-peptide macrocyclic histone deacetylese (HDAC) inhibitors and methods of making and using thereof” (Georgia Tech Research Corporation, priority 2007, dated 2014).
